# Values quoted from earlier work, collected in patent US6337320B1, “Reparatives for ultraviolet radiation skin damage” (Thione International, Inc., priority 1996, dated 2002).
# How the values were obtained:
# [1] = system: vitamin E deficient chicks
# [2] = oral, prolonged periods
compound,measurement,setting,value
C[Se]CC[C@H](N)C(=O)O [selenomethionine],in vivo lipid peroxidation in tissues,[1],inhibits
same,concentration of selenium in skin in areas of topical application,"mice; lotion, topical vs comparable oral doses",greater than those of the experimental animals given comparable oral doses
same,"skin damage by ultraviolet irradiation (inflammation, pigmentation, onset and incidence of skin cancers)","mice; mice treated with selenomethionine, ultraviolet irradiation",significantly less skin damage
same,selenium toxicity,"mice; mouse, in vivo, po",no evidence of selenium toxicity
same,"protection against acute UV damage to the skin, as measured by the minimal erythema dose","human subjects; eight women, topical lotion 0.002%, 0.02% and 0.05%",effective
same,plasma levels of selenium,"human subjects; volunteers, topical application",remained unchanged
same,skin levels of selenium dependent glutathione peroxidase,patients with psoriasis; normal and psoriatic skin,unchanged
same,increase in blood levels post treatment,patients with psoriasis; psoriasis patients with normal pretreatment selenium blood levels,40%
same,number of CD4+T-cells,patients with psoriasis; reticular dermis of the psoriatic lesions,statistically significant increase
(−)epigallo catechin gallate [EGCG],hydrogen peroxide formation,human leukocytes,inhibits
[Se] [selenium],dose at which selenium toxicities occur,[2],> 4000 micrograms per day
